Patent publication US20240238238A1, “Isotopically Modified Composition and Therapeutic Uses Thereof” (BioJiva LLC, priority 2018, published 2024)

Experiments:
[1] = Plasma PK by LC-MS (D2-LA, LA, D2-AA) in the phase I/II trial
Description: (§1) PK samples were obtained predose and at 0.5, 1, 1.5, 2, 4, 6, 8, 12, 16, and 24 hours following the first dose and 14, 28, 29, 30, and 31 days following enrollment. The samples taken on Days 29-31 represent Isotopically modified polyunsaturated fatty acid, ester, thioester, amide, or other prodrug thereof (e.g., 11,11,D2-linoleic acid ethyl ester) washout levels. D2-LA, linoleic acid (LA), deuterated arachidonic acid (D2-AA), and arachidonic acid (ARA) concentrations were measured in the samples.
(§2) Plasma concentrations of 11,11-D2-linoleic acid ethyl ester (combined free acid form and ester form) and non-deuterated analogs were determined by liquid chromatography and mass spectrometry (LCMS). Blood was collected in K2EDTA anticoagulant tubes, centrifuged to obtain plasma and red blood cells (RBCs), and frozen until analyzed. The samples were hydrolyzed to free fatty acids and analyzed by high performance LC-MS by Good Laboratory Practice validated methods. Low-intensity D2 and high-intensity H2 signals were measured with high accuracy at Ricerca Biosciences, using an AB SCIEX 6500 tandem-quadrupole MS. The 13C2 isotopomer signal was used as a calibration standard for 11,11,D2-linoleic acid ethyl ester; a polydeuterated internal standard was utilized. The enzymatic elongation/desaturation metabolite, 13,13-D2-arachidonic acid (D2-AA), was also measured, in plasma and red blood cells (RBCs).

[2] = test system: Friedreich's ataxia patients; test: Phase I/II double blind, comparator-controlled trial: safety and tolerability; assay type: in vivo, human; conditions: for Safety and tolerability: oral, 1.8 or 9.0 g/day, FRDA patients
Description: A phase I/II double blind, comparator-controlled trial with 2 doses of 11,11-D2-linoleic acid ethyl ester in Friedreich's ataxia patients (9 subjects in each cohort) was conducted. Subjects were randomized 2:1 to receive either 11,11-D2-linoleic acid ethyl ester (1.8 or 9.0 g/day), or a matching dose of non-deuterated ethyl linoleate as comparator for 28 days.
(§3) The primary study objectives were to evaluate the safety and tolerability of orally administered 11,11-D2-linoleic acid ethyl ester. Additional study objectives included identifying the PK of 11,11-D2-linoleic acid ethyl ester following single and multiple oral dose administration and establishing an optimum dose of 11,11-D2-linoleic acid ethyl ester. Additional clinical testing consisted of the Friedreich's Ataxia Rating Scale (FARS)-Neurological point (FARS-Neuro), the timed 25-foot walk (T25FW) with an electronic sensor to measure multiaxis components of motion during the study, and cardiopulmonary exercise testing (CPET). The CPET was performed on an electronically braked cycle ergometer (Lode Corival, Groningen, The Netherlands). The protocol included: 5 minutes of rest; 3 minutes of an unloaded cycling warm-up; a progressive protocol with increased workload each minute (5-25 watts based on estimated functional capacity); 2 minutes of an unloaded cycling recovery; and 10 minutes of passive recovery. Heart rate (HR), blood pressure (BP), ratings of perceived exertion (RPE), pulse oximetry, and expired gases were monitored in accord with standard exercise testing guidelines. Scc Pescatello et al., Thompson P. ACSM's Guidelines for Exercise Testing and Prescription. Baltimore, MD: Wolters Kluwer; 2014:114-141. Heart rate was measured by electrocardiogra (Pulse Biomedical, King of Prussia, PA), BP was determined by auscultation, RPE was estimated using the standard 6 to 20 scale, and expired gases were collected through a silicone rubber mask (Hans Rudolph, Shawnee, KS) and analyzed continuously using a metabolic cart (Parvomedics, AQ5 Sandy, UT) Vacumetrics (Ventura, CA). Endpoints of interest were peak oxygen consumption (VO2 peak) and peak workload. All other variables were primarily assessed to monitor patient safety and progress during the exercise trial.
The study included male or female participants, aged 18 to 50 years, with a FRDA onset at equal or less than 25 years of age, homozygosity for GAA repeat expansions in FXN, and FARS-Neuro range of 20 to 90 points. Participants were ambulatory (with or without assistive device), capable of performing other assessments/evaluations, with a body mass index (BMI) equal or less than 34 kg/m^2. Subjects were agreeable to dietary restriction coaching from a diet counselor to lower PUFA dietary intake, for maximal incorporation of 11,11-D2-linoleic acid ethyl ester. Sample size was selected to ensure 12 fully evaluable patients for active treatment and 6 patients for the comparator treatment. It was not powered, but considered adequate for a first-in-human trial of 11,11-D2-linoleic acid ethyl ester.
A randomization schedule was generated before the first dosing period by Agility Clinical, Inc. (Carlsbad, CA) that followed their established standard operating procedures regarding generation, security, and distribution of the randomization scheme. Patients who provided informed consent and met all enrollment criteria were randomized into the study. In order to randomize a patient, the site contacted the unblinded statistician at Agility, Inc to identify which kit should be provided to the patient.
Patients were randomly assigned to receive one of two treatments (11,11,D2-linoleic acid ethyl ester or comparator) following a 2:1 ratio, respectively. The study sponsor, investigators, research pharmacy, and patients were blinded to the subject's treatment. […]

[3] = Red blood cell (RBC) concentrations by LC-MS in the phase I/II trial; assay type: in vivo, human
Description: as §1, §2
The ability of 11,11-D2-linoleic acid ethyl ester to enter the cellular membrane compartment was assessed by measuring 11,11-D2-linoleic acid ethyl ester and LA concentration in RBCs during the 28-day period.

[4] = test system: Friedreich's ataxia patients; test: Timed 25-foot walk (T25FW) with electronic motion sensor or stopwatch; assay type: in vivo, human
Source text: as §3, with “The protocol included: 5 minutes of rest; 3 minutes of an unloaded cycling warm-up; a progressive protocol with increased workload each minute (5-25 watts based on estimated functional capacity); 2 minutes of an unloaded cycling recovery; and 10 minutes of passive recovery.” left out, “Scc Pescatello et al., Thompson P. ACSM's Guidelines for Exercise Testing and Prescription. Baltimore, MD: Wolters Kluwer; 2014:114-141.” left out, “Endpoints of interest were peak oxygen consumption (VO2 peak) and peak workload.” left out, “trial. […]” for “trial.”

[5] = test system: Friedreich's ataxia patients; test: Cardiopulmonary exercise testing (CPET): peak workload, VO2max; assay type: in vivo, human; conditions: for Median change from baseline in peak oxygen consumption (VO2max): baseline to day 28, P=0.116
Source text: as §3
Four protocol-defined outcomes (peak workload, VO2max, FARS-Neuro, and T25FW) were examined to explore for possible endpoints for future studies in FRDA. Nonparametric statistics were used to compare the results of those receiving 11,11-D2-linoleic acid ethyl ester to comparator. A modified intention-to-treat (mITT) population was used for the VO2max and peak workload testing analysis because 2 subjects were unable to complete the exercise test. One subject was unable to establish required pedal cadence, and the test was terminated at the conclusion of the warm-up at baseline and day 27 and 1 subject had to stop the day 27 testing because the subject's knees were hitting together and the subject was unable to maintain the RPM. […] After Bonferroni adjustment for testing the four outcomes, the change in peak workload between study drug and comparator remained significant (P=0.032). This Bonferroni adjustment is standard in early-stage trials to analyze both prospective or post-hoc data from multiple exploratory efficacy endpoints in order, to determine the most suitable primary endpoint for subsequent pivotal trials.

[6] = test system: Friedreich's ataxia patients; test: Friedreich's Ataxia Rating Scale-Neurological (FARS-Neuro); assay type: in vivo, human
Source text: as §3, with “The protocol included: 5 minutes of rest; 3 minutes of an unloaded cycling warm-up; a progressive protocol with increased workload each minute (5-25 watts based on estimated functional capacity); 2 minutes of an unloaded cycling recovery; and 10 minutes of passive recovery.” left out, “Scc Pescatello et al., Thompson P. ACSM's Guidelines for Exercise Testing and Prescription. Baltimore, MD: Wolters Kluwer; 2014:114-141.” left out, “Endpoints of interest were peak oxygen consumption (VO2 peak) and peak workload.” left out, “trial. […]” for “trial.”

[7] = drug group, cohort 2 (4.5 g BID), 28 days

SMILES: [2H]C([2H])(/C=C\C/C=C\C/C=C\CCCC(=O)O)/C=C\CCCCC [D2-AA, 13,13-D2-arachidonic acid]
- Mean plasma concentration of D2-AA ([1]; high dose (4.5 g BID), 72-hour period after the last dose (day 28)): around 22 μg/mL
- Plasma concentration of D2-AA (metabolite) ([1]; high dose, predose baseline and day 1, LOQ 1 μg/mL): below or slightly above the LOQ
- Plasma concentration of D2-AA (metabolite) ([1]; low dose 11,11-D2-linoleic acid ethyl ester, day 1): below quantitation
- Mean plasma concentration of D2-AA, maximum at 32 hours after the last dose ([1]; low dose (1.8 g QD), after day 28): 5530 ng/mL
- Mean plasma concentration of D2-AA, maximum at 6 hours after the last dose ([1]; low dose (1.8 g QD), day 28): 3860 ng/mL

SMILES: [2H]C([2H])(/C=C\CCCCC)/C=C\CCCCCCCC(=O)OCC [11,11-D2-linoleic acid ethyl ester]
- Diarrhea assessed as "possibly related to study drug" [2, 7]: 3 subjects
- Diarrhea assessed as "probably related to study drug" [2, 7]: 1 subject
- Subjects who discontinued the study because of steatorrhea ([2]; high-dose group (cohort 2), BMI 15.4, within the first week): One
- Safety and tolerability ([2]; 28 days): safe and tolerable
- Safety and tolerability ([2]; 28 days, listed as 11,11,D2-linoleic acid ethyl ester): well tolerated
- RBC concentration of D2-LA as percentage of total LA (D2-LA plus LA), mean ([3]; cohort 1): 6.52%
- RBC concentration of D2-LA as percentage of total LA (D2-LA plus LA), mean ([3]; cohort 2): 25.8%
- Mean RBC concentration of D2-LA ([3]; day 28, cohort 1 (1.8 g QD)): 14.6 ± 8.7 µg/mL
- Mean RBC concentration of D2-LA ([3]; day 28, cohort 2 (4.5 g BID)): 26.1 ± 19.2 µg/mL
- T25FW^−1 time, traditionally measured (by stopwatch) ([4]; P=0.88): no signal of significance
- Improvement of stride speed (stride time)^−1 ([4]; electronic motion sensing device on the ankle, 25-foot timed walk, P=0.15 ITT): 7%
- Change in VO2max between drug and comparator ([5]; baseline to day 28): 17.5%
- Median change from baseline in peak oxygen consumption (VO2max) [5]: 0.14 L/min
- Change in peak workload in the drug group at study end-point ([5]; baseline to day 28, mITT): 25.7%
- Improvement in peak workload from baseline to day 28 ([5]; study drug (n=10) versus comparator (n=6), mITT, P=0.008): 0.16 watts/kg
- Median decrease in FARS-Neuro ([6]; baseline to day 28): 4.75 FARS points
- Difference in FARS points decrease between drug and placebo groups ([6]; baseline to day 28, P=0.348 ITT): 1.95 FARS points
- Increase of day 28 24-hour AUC when the daily dose was increased 5-fold ([1]; human, in vivo): approximately 4 fold
- Time of maximum plasma D2-LA concentration ([1]; in vivo): 8 to 10 h
- Time to steady state in the plasma and in RBCs ([1]; in vivo, po): ≤ 28 days

SMILES: CCCCC/C=C\C/C=C\CCCCCCCC(=O)OCC [comparator, ethyl linoleate, reference compound]
- Diarrhea (TEAE) ([2]; both, human, in vivo, 28 days): 1 subject
- Median change from baseline in peak oxygen consumption (VO2max) [5]: -0.02 L/min
